Among the data in ChEMBL document CHEMBL4507264, “Data for DCP probe BAY-7598” (2021) are inhibition values, retold here.

The target of data set [1] is Platelet-activating factor receptor (Homo sapiens) (UniProt P25105). Description: Inhibition of Platelet Activating Factor (PAF) at 10 µM in the Eurofins-Panlabs radioligand binding assay (Eurofins_assay_265010). The settings on record: Compound concentration 10.0 uM.
Data set [2] addresses Melatonin receptor type 1A (Homo sapiens) (UniProt P48039). Put plainly: Inhibition of Melatonin MT1 at 10 µM in the Eurofins-Panlabs radioligand binding assay (Eurofins_assay_251600). More on the design: ligand concentration 0.05 nM. The settings on record: Compound concentration 10.0 uM.
In data set [3] the target is GABA-A receptor; anion channel (Rattus norvegicus) (UniProt O09028+P15431+P18506+P18508+P19969+P20236+P23574+P23576+P28471+P28473+P30191+P62813+P63079+P63138+Q91ZM7+Q9ES14). Conditions: Compound concentration 10.0 uM; call rule not given here.
For data set [4], the target named is Gamma-aminobutyric acid type B receptor subunit 1 (Homo sapiens) (UniProt Q9UBS5). Put plainly: Inhibition of GABAB1A at compound concentration of 10.0 uM in the Eurofins-Panlabs radioligand binding assay (Eurofins_assay_228610). The settings on record: Compound concentration 10.0 uM. On the set-up: ligand concentration 4 nM.
In data set [5] the target is B1 bradykinin receptor (Homo sapiens) (UniProt P46663). Description: Inhibition of Bradykinin B1 at 10 µM in the Eurofins-Panlabs radioligand binding assay (Eurofins_assay_212510). Conditions: Compound concentration 10.0 uM.
The target in data set [6] is 5-hydroxytryptamine receptor 2B (Homo sapiens) (UniProt P41595). The settings on record: Compound concentration 10.0 uM.
5-hydroxytryptamine receptor 2B (Homo sapiens), sequence (P41595 whole entry): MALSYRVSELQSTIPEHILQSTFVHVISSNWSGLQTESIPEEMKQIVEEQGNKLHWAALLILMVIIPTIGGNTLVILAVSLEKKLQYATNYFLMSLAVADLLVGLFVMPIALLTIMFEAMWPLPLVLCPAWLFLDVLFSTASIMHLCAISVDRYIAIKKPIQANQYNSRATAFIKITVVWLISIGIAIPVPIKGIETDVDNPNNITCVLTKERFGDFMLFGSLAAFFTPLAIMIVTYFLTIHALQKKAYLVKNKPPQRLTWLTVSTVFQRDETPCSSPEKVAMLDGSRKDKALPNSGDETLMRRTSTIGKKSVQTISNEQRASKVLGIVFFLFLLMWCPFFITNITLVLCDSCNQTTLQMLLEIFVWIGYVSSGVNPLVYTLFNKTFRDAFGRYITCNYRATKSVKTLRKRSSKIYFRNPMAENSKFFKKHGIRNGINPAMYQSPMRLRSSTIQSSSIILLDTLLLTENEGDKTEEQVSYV
Data set [7] deals with Glucocorticoid receptor (Homo sapiens) (UniProt P04150). Conditions: Compound concentration 10.0 uM.
Data set [8] concerns the target voltage-gated sodium channel, site 2 (Rattus norvegicus, UniProt F1LQQ7+O08562+O88420+O88457+P04774+P04775+P08104+P15389+P15390+Q62968). Put plainly: Inhibition of Sodium Channel, Site 2 at 10 µM in the Eurofins-Panlabs radioligand binding assay (Eurofins_assay_279510). The format is protein assay. On the set-up: ligand concentration 5 nM, non-specific ligand with concentration 100 µM Veratridine, incubation time 60 min, incubation temperature 37 °C. Conditions: male, Wistar, rat whole brain (except cerebellum) membranes, probe [3H] Batrachotoxinin, compound concentration 10 uM.

The species named for the next data set is Mus musculus. Description: Inhibition of Interleukin IL-1 at 10 µM in the Eurofins-Panlabs radioligand binding assay (Eurofins_assay_243520). The settings on record: Compound concentration 10.0 uM. More on the design: ligand concentration 0.1 nM.
The target of data set [9] is Delta-type opioid receptor (Homo sapiens) (UniProt P41143). The settings on record: Compound concentration 10.0 uM.
For another data set, the species on record is Rattus norvegicus. The settings on record: Compound concentration 10.0 uM.
Data set [10] concerns the target Endothelin receptor type B (Homo sapiens) (UniProt P24530). Conditions: Compound concentration 10.0 uM.
For data set [11], the target named is Voltage-dependent N-type calcium channel subunit alpha-1B (Homo sapiens) (UniProt Q00975). Description: Inhibition of Calcium Channel N-Type at 10 µM in the Eurofins-Panlabs radioligand binding assay (Eurofins_assay_216000). Conditions: Rattus norvegicus; Compound concentration 10.0 uM.
Voltage-dependent N-type calcium channel subunit alpha-1B (Homo sapiens), sequence (Q00975 whole entry, looked up): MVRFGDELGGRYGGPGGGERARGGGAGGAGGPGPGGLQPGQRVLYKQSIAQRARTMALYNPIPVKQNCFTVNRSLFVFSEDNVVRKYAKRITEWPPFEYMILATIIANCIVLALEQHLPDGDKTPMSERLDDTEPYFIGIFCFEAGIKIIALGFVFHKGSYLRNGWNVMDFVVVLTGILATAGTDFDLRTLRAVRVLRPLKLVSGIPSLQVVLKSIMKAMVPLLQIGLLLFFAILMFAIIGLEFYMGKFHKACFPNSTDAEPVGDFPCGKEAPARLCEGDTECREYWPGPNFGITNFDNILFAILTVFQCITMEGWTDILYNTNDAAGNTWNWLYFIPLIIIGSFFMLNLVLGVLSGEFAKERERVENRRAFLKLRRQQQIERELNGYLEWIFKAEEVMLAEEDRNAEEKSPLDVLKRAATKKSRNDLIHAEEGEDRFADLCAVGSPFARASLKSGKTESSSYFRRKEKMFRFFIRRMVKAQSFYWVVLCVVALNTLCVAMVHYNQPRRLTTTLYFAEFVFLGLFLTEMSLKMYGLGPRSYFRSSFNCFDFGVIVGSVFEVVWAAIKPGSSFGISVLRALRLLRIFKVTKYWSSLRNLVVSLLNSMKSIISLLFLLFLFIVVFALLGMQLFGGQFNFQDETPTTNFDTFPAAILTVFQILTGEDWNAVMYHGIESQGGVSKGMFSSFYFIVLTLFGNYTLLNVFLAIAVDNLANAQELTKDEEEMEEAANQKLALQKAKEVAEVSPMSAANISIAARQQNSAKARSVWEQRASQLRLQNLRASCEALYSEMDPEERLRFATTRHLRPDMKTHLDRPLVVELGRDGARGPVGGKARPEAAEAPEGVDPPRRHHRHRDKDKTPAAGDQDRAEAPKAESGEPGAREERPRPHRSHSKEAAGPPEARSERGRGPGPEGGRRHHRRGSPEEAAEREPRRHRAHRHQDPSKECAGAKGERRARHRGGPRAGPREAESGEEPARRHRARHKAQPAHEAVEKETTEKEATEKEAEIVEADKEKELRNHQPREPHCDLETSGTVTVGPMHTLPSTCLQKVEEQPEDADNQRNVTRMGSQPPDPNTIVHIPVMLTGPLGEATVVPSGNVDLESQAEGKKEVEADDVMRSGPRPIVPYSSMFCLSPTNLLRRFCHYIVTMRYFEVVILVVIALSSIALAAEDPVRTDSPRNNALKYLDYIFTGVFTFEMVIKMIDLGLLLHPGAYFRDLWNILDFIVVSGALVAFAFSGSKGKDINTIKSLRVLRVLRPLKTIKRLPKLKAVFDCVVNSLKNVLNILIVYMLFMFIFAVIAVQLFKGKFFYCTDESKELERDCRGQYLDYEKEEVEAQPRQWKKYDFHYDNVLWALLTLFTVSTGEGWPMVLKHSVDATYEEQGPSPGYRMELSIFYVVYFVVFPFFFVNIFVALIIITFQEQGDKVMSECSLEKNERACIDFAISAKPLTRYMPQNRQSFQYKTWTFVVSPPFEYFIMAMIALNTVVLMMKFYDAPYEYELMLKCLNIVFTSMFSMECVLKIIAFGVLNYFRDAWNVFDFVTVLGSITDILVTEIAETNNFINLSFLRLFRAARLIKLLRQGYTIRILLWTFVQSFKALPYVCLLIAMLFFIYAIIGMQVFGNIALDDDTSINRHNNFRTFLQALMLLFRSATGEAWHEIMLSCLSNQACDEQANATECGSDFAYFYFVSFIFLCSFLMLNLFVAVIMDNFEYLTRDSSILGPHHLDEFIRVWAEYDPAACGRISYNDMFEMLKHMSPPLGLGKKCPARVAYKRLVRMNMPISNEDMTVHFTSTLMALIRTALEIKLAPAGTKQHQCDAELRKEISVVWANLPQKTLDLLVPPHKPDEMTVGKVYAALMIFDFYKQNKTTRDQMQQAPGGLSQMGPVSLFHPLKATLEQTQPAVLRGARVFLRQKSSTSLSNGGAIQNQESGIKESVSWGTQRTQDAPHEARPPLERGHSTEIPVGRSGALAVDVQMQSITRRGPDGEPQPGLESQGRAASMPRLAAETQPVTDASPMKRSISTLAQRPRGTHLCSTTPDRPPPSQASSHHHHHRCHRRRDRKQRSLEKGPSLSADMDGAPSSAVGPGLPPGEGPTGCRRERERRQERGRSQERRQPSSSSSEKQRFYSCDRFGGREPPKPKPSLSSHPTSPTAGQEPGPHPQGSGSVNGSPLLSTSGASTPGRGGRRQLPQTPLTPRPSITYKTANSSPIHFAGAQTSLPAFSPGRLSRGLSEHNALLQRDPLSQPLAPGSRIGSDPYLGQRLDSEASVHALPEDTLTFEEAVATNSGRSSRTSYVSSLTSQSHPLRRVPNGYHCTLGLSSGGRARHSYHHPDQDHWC
The species named for a further data set is Oryctolagus cuniculus. Description: Inhibition of Purinergic P2X at 10 µM in the Eurofins-Panlabs radioligand binding assay (Eurofins_assay_268700). The format is protein assay. Conditions: Compound concentration 10.0 uM.
Data set [12] deals with Mu-type opioid receptor (Homo sapiens) (UniProt P35372). Conditions: Compound concentration 10.0 uM.
Mu-type opioid receptor (Homo sapiens), sequence (P35372 whole entry): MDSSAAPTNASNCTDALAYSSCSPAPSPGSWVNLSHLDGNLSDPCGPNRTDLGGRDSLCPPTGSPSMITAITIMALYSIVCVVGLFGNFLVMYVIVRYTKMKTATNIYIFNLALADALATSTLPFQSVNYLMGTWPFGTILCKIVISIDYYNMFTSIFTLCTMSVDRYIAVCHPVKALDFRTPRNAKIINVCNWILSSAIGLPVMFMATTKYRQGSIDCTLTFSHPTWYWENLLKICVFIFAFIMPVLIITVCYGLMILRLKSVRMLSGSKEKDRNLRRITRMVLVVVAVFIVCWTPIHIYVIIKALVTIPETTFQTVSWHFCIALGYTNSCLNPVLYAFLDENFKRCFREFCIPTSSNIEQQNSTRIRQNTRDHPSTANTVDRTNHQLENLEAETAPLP
The next data set deals with hERG (KCNH2) (Homo sapiens, UniProt Q12809). Put plainly: Inhibition of Potassium Channel hERG at 10 µM in the Eurofins-Panlabs radioligand binding assay (Eurofins_assay_265900). On the set-up: ligand concentration 1.5 nM, non-specific ligand with concentration Astemizole, incubation time 60 min, incubation temperature 25 °C. Conditions: HEK-293 cells expressing human recombinant hERG, probe [3H] Astemizole, compound concentration 10 uM. For orientation: The hERG channel carries a current that helps repolarise heart muscle cells.
hERG (KCNH2), sequence (Q12809 whole entry): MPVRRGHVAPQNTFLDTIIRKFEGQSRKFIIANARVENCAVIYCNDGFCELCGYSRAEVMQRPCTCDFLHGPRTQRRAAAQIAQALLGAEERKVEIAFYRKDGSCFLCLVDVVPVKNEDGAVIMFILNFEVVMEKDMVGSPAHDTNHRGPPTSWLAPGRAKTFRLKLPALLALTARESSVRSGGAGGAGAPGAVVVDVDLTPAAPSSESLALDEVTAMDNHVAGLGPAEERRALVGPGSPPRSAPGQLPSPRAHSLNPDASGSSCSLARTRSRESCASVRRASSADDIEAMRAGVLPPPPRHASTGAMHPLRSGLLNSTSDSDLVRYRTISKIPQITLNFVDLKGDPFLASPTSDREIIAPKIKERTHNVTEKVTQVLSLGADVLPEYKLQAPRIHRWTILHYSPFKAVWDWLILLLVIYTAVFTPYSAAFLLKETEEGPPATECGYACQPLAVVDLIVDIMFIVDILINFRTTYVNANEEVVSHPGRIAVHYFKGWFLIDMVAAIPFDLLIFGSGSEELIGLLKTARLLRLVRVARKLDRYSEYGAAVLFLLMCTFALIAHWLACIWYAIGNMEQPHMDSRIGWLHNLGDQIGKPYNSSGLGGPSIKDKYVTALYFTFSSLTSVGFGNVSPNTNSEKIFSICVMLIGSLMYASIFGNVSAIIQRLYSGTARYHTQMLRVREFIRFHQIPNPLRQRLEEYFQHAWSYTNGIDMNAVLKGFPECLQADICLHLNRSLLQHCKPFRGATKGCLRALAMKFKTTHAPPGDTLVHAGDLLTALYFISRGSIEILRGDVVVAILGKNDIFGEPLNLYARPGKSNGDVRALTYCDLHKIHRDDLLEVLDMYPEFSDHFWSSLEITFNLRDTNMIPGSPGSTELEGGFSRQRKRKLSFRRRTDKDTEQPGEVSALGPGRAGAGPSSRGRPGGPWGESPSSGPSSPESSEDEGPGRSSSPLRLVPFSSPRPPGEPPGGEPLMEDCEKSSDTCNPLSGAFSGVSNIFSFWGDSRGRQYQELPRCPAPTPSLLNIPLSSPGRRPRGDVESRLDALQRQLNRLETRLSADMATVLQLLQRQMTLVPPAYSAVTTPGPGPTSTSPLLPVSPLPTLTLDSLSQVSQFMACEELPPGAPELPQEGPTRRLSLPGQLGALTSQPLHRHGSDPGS

Platelet-activating factor receptor (Homo sapiens), sequence (P25105 whole entry): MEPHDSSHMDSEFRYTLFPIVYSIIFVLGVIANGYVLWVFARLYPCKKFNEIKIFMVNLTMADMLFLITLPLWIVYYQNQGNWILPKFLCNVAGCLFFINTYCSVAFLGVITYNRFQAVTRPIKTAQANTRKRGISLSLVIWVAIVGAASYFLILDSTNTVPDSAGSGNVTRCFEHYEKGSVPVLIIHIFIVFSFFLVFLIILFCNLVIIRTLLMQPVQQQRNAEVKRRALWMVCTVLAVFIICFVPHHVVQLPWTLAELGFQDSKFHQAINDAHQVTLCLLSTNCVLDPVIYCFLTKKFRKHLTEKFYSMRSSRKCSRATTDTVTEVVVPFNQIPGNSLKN
Melatonin receptor type 1A (Homo sapiens), sequence (P48039 whole entry): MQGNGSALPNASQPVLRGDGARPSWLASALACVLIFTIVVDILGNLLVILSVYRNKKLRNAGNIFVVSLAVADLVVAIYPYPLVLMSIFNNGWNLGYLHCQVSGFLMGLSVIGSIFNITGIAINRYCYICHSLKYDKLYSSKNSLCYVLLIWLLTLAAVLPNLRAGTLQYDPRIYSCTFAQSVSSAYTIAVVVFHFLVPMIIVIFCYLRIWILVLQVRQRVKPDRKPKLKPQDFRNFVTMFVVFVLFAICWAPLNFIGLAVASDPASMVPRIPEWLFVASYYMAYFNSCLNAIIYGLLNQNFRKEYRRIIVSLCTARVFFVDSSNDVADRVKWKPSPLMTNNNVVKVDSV

Turning to `O=C(O)[C@H]1[C@H](Cn2nnc3ccccc3c2=O)CC[C@@H]1C(=O)c1ccc(OCCC2CCOCC2)cc1` [BAY-7598], the inhibition (in general, the relative decrease from the control value, in per cent) in data set [1] is 6%; in data set [2], 2%; in data set [3], -2%; in data set [4], 0%; in data set [5] it was 6%; in [6], 4%. The inhibition was 12% in [7]; 0% in the data set listed under Mus musculus; 9% in data set [9]; 1% in the data set filed under Rattus norvegicus; 18% in data set [10]; 6% in data set [11]. The values for the inhibition (in the data set filed under Oryctolagus cuniculus; in data set [12]) were -1% and -9%, respectively. Besides, the values for the inhibition at 60 min, 10 µM (in [8]; on hERG (KCNH2)) were -1% (not active) and 7% (not active), respectively.
